Source: PMC5837613 (Toxicological Sciences, 2017)
Each block holds one compound with its values, some of them ahead of it.

Legend:
[1] = molecular target: FAK (Homo sapiens, UniProt Q05397); test: KinomeScan competition binding assay, FAK
[2] = molecular target: RPS6KB1 (Homo sapiens, UniProt P23443); test: KinomeScan competition binding assay, RPS6KB1
[3] = molecular target: STK35 (Homo sapiens, UniProt Q8TDR2); test: KinomeScan competition binding assay, STK35
[4] = human plasma, Cmax at steady state; ref 1-28 of Supplementary Text; cited from earlier work
[5] = test system: hiPSC CM (iCell Cardiomyocytes); test: Cellular impedance; format: cell-based, human; conditions: 3 µM, 2 h exposure; for change in beat amplitude / change in beat rate: significant = >3*SD of vehicle
[6] = test system: hiPSC CM (iCell Cardiomyocytes); test: Cellular ATP levels; format: cell-based, human; conditions: 3 µM, 24 h after compound addition

Chain of STK35 (Q8TDR2 whole entry): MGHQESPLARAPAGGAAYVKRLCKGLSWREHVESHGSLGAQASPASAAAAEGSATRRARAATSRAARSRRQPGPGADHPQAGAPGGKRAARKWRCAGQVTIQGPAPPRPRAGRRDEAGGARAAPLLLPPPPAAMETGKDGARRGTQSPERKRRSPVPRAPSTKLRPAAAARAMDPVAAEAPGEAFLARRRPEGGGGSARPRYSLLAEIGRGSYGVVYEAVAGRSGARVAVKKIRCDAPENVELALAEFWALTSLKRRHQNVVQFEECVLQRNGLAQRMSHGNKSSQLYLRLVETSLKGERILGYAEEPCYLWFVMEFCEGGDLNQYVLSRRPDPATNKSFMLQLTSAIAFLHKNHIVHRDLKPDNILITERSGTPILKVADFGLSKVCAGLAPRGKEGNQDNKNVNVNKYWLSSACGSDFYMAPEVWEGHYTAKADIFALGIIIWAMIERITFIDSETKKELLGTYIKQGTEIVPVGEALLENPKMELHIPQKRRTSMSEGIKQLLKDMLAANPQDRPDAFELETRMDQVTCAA
Chain of RPS6KB1 (P23443 whole entry): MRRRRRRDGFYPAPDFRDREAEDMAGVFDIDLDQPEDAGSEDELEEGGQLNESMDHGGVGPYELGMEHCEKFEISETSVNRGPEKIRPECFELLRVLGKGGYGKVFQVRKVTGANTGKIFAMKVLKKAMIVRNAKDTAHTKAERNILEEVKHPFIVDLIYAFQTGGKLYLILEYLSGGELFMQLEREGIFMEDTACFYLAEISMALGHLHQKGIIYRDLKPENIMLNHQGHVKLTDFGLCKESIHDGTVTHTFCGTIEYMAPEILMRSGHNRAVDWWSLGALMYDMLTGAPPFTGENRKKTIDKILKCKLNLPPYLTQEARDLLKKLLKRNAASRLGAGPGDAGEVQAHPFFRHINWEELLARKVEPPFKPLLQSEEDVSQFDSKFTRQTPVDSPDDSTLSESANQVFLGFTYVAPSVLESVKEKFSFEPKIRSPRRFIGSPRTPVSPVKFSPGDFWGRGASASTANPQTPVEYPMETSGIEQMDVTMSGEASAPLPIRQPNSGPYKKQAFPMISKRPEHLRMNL
Chain of FAK (Q05397 whole entry): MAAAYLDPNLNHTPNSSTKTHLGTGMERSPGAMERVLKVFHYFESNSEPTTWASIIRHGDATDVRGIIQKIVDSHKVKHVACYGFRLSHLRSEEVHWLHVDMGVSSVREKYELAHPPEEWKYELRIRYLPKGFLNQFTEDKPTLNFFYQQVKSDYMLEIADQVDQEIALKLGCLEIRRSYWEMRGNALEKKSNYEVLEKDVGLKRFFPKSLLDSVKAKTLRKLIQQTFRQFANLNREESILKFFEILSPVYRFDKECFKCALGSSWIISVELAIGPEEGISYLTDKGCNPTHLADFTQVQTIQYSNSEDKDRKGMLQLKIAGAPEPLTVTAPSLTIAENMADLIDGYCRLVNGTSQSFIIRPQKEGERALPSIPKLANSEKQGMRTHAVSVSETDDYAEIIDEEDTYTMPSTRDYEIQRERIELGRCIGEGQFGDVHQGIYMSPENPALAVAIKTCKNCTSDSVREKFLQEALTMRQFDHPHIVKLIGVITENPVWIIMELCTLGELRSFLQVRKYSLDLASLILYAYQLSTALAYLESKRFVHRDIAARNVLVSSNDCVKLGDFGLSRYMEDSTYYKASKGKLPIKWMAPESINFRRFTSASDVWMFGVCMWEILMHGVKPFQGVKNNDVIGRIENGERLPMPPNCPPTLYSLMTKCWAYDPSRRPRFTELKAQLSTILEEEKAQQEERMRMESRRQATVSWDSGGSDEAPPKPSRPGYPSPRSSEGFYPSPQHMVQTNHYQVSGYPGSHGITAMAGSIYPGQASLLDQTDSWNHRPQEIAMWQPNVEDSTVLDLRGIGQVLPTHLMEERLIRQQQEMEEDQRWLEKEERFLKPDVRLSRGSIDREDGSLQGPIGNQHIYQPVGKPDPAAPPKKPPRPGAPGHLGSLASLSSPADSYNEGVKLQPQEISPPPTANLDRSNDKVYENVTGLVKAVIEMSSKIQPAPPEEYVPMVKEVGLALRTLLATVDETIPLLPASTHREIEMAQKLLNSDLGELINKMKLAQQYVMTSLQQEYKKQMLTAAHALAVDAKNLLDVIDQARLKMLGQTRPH

IC50 [1]: 2800 nM | IC50 [2]: 13.2 µM | IC50 [3]: 5.7 µM
SMILES: COc1cc2nccc(Oc3ccc(NC(=O)C4(C(=O)Nc5ccc(F)cc5)CC4)cc3)c2cc1OC [Cabozantinib]
Cmaxss [4]: 2.8 µM

IC50 [1]: > 32000 nM | IC50 [2]: > 32 µM | IC50 [3]: > 32 µM
SMILES: CNC(=O)c1cc(COc2nnc(Nc3ccc(Cl)cc3)c3ccoc23)ccn1 [Telatinib]
Cmaxss [4]: 2.0 to 3.6 µM

effect on CM beating (beat rate or amplitude) [5]: induced CM beating effects | change in beat amplitude [5]: independent of a change in amplitude | change in beat rate [5]: increased beat rate
SMILES: OCCn1cc(-c2ccc3c(c2)CC/C3=N\O)c(-c2ccncc2)n1 [GDC-0879]

change in beat amplitude [5]: increased amplitude | change in beat rate [5]: independent of a change in beat rate
SMILES: Cc1[nH]nc2ccc(-c3cncc(OC[C@@H](N)Cc4ccccc4)c3)cc12 [A-674563]

SMILES: CN[C@@H]1C[C@H]2O[C@@](C)([C@@H]1OC)n1c3ccccc3c3c4c(c5c6ccccc6n2c5c31)C(=O)NC4 [staurosporine]
cytotoxicity (decreased cellular ATP levels and decreased cell index) [6]: induce cell death

effect on CM beating (beat rate or amplitude) [5]: no effect on CM beating
SMILES: Cc1cnc(Nc2ccc(OCCN3CCCC3)cc2)nc1Nc1cccc(S(=O)(=O)NC(C)(C)C)c1 [TG-101348]

change in beat amplitude [5]: increased amplitude | change in beat rate [5]: independent of a change in beat rate
SMILES: CCn1c(-c2nonc2N)nc2c(C#CC(C)(C)O)ncc(OC[C@H]3CCCNC3)c21 [GSK-690693]

SMILES: C[C@]12O[C@H](C[C@]1(O)CO)n1c3ccccc3c3c4c(c5c6ccccc6n2c5c31)CNC4=O [CEP-701]
change in beat amplitude [5]: decreased amplitude | change in beat rate [5]: increased beat rate

effect on CM beating (beat rate or amplitude) [5]: induced CM beating effects
SMILES: Cc1cc2c(F)c(Oc3ncnn4cc(OC[C@@H](C)O)c(C)c34)ccc2[nH]1 [BMS-540215]

IC50 [1]: 100 nM | IC50 [2]: 3 µM | IC50 [3]: > 3.2 µM
SMILES: NC(=O)Nc1cc(-c2cccc(F)c2)sc1C(=O)N[C@H]1CCCNC1 [AZD7762]

IC50 [1]: 3100 nM | IC50 [2]: > 3.2 µM | IC50 [3]: > 3.2 µM
SMILES: COc1cc2nccc(Oc3ccc(NC(=O)Nc4cc(C)on4)c(Cl)c3)c2cc1OC [Tivozanib]
Cmaxss [4]: 0.2 µM

change in beat amplitude [5]: decreased amplitude | change in beat rate [5]: increased beat rate
SMILES: CO[C@@H]1[C@H](N(C)C(=O)c2ccccc2)C[C@H]2O[C@]1(C)n1c3ccccc3c3c4c(c5c6ccccc6n2c5c31)C(=O)NC4 [PKC-412]

IC50 [3]: > 10 µM
SMILES: Cc1cc(Nc2cc(N3CCN(C)CC3)nc(/C=C/c3ccccc3)n2)n[nH]1 [ENMD-2076]
Cmaxss [4]: 0.6 to 1.5 µM

effect on CM beating (beat rate or amplitude) [5]: no effect on CM beating
SMILES: Cc1[nH]c(/C=C2\C(=O)Nc3ccc(F)cc32)c(C)c1C(=O)NC[C@H](O)CN1CCOCC1 [SU14813]
